Experimental data from ChEMBL document CHEMBL4376804, “Review of Transient Receptor Potential Canonical (TRPC5) Channel Modulators and Diseases” (J Med Chem, 2019).
pIC50: −log10 of the molar value.

Target: ORAI1/STIM1 (Rattus norvegicus, UniProt P84903+Q5M848)
Assay: Inhibition of ORAI/STIM1 in thapsigargin treated rat RBL2H3 cells assessed as reduction in store-operated calcium entry after 5 mins by fura-2-AM dye based assay
Format: cell-based

Chain of ORAI1/STIM1 (P84903 whole entry): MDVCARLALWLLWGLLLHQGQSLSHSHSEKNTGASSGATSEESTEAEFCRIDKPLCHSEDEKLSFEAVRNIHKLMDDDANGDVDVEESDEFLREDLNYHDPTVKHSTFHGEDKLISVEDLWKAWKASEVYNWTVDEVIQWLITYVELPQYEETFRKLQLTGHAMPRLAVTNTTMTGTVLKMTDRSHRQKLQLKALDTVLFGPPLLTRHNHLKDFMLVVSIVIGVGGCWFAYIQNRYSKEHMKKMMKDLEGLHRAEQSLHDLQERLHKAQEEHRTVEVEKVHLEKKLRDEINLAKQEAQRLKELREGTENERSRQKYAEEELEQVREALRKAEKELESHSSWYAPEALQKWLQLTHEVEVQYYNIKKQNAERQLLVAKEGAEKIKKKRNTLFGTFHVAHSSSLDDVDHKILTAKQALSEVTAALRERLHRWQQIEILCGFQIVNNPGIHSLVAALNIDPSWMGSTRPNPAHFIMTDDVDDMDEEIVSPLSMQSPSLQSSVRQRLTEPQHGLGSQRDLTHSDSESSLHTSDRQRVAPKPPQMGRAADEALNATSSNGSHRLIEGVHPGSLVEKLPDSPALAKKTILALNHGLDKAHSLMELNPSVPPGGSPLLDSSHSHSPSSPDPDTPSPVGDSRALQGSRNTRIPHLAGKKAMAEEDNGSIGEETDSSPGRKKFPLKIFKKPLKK
Chain of ORAI1/STIM1 (Q5M848 whole entry): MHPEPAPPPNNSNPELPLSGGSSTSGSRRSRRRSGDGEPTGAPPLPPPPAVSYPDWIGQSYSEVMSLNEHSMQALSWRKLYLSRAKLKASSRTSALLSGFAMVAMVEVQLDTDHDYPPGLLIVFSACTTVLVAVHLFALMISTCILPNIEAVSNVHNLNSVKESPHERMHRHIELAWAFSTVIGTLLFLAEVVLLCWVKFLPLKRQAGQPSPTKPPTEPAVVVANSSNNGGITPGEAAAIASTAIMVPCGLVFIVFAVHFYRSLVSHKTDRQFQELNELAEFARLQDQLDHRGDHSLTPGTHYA

Row | pIC50 | SMILES
1 | 4.88 | Cc1ccc(S(=O)(=O)Nc2ccc(-n3nc(C(F)(F)F)cc3C(F)(F)F)cc2)cc1

Target: T1, Short transient receptor potential channel 3 (Homo sapiens, UniProt Q13507)
T1 sequence (Q13507 whole entry): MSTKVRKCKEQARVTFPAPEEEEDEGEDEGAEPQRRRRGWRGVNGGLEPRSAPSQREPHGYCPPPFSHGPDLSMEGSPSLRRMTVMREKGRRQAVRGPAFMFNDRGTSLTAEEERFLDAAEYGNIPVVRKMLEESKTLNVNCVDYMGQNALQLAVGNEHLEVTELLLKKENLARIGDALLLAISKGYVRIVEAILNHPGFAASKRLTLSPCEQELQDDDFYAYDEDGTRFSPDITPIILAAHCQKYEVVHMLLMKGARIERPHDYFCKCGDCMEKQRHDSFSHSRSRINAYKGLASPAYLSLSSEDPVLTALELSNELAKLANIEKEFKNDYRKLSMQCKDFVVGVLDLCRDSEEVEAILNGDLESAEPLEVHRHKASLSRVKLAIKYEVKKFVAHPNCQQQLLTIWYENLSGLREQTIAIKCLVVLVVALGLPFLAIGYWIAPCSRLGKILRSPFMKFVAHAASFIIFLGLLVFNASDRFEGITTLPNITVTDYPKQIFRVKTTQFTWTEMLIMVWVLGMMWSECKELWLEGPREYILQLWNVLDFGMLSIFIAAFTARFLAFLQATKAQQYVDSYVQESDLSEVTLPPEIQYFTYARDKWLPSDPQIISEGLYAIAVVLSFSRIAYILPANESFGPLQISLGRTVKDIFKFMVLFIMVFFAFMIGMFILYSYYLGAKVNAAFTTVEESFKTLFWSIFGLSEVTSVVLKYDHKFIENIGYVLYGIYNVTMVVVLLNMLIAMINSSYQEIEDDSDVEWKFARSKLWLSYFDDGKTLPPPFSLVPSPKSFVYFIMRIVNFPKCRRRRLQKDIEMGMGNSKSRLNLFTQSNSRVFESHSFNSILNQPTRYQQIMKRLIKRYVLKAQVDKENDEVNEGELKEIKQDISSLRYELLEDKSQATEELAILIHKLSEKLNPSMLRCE
Assay: Inhibition of YFP-tagged TRPC3 (unknown origin) expressed in HEK293 cells assessed as reduction carbhocol-induced receptor operated Calcium influx after 5 mins by fura-2-AM dye based assay
Format: cell-based

Row | pIC50 | SMILES
2 | 6.14 | Cc1ccc(S(=O)(=O)Nc2ccc(-n3nc(C(F)(F)F)cc3C(F)(F)F)cc2)cc1

Target: T2, Short transient receptor potential channel 5 (Homo sapiens, UniProt Q9UL62)
T2 sequence (Q9UL62 whole entry): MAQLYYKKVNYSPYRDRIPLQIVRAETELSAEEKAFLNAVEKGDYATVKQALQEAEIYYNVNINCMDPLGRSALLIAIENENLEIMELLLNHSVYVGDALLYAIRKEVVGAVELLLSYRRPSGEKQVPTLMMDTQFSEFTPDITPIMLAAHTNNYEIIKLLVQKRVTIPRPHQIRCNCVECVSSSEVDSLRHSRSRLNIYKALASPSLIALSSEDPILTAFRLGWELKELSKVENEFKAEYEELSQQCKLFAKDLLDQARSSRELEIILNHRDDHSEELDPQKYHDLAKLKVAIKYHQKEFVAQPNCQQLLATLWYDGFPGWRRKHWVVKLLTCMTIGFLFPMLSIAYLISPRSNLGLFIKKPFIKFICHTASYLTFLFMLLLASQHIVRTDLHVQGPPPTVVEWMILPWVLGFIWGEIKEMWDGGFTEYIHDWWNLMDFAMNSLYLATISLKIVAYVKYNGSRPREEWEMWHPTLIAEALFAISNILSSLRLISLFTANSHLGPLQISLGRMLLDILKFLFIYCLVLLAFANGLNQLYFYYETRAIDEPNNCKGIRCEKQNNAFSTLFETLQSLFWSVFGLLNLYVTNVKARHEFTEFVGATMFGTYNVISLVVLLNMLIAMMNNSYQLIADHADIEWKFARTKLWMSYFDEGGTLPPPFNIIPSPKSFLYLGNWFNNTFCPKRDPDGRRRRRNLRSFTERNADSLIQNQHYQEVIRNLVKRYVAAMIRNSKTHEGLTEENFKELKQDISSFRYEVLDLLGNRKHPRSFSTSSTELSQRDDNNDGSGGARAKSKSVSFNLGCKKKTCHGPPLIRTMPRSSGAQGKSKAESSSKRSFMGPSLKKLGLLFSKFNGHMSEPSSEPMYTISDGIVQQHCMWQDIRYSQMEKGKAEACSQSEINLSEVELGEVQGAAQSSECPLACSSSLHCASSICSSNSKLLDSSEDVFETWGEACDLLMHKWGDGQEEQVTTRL
Assay: Inhibition of TRPC5 (unknown origin) expressed in HEK293/TREx cells assessed as reduction in intracellular calcium level measured for 3 mins by fluo4 dye-based fluorescence assay
Format: cell-based

Row | SMILES | pIC50
3 | Cn1c(=O)n(CCCO)c(=O)c2c(Cc3ccc(Cl)cc3)c(-c3cccc(Cl)c3)sc21 | 5.77 to 7.68
4 | Cc1c(-c2ccccc2Cl)sc2c1c(=O)n(CCCO)c(=O)n2C | 5.77 to 7.68
5 | Cn1c(=O)n(CCCO)c(=O)c2c(Cc3ccc(F)cc3)c(Oc3cccc(OC(F)(F)F)c3)ccc21 | 6.40 to 9.00
6 | Cc1c(-c2ccccc2OC(F)(F)F)sc2c1c(=O)n(CCCO)c(=O)n2C | 5.77 to 7.68
7 | Cn1c(=O)n(CCCO)c(=O)c2c(Cc3ccccc3)c(Oc3cccc(OC(F)(F)F)c3)ccc21 | 6.40 to 9.00
8 | Cn1c(=O)n(CCCO)c(=O)c2c1cc(-c1cccc(OC(F)(F)F)c1)n2Cc1ccc(Cl)cc1 | 5.12 to 6.39
9 | Cn1c(=O)n(CCCCO)c(=O)c2c(Cc3ccccc3)c(Oc3cccc(OC(F)(F)F)c3)ccc21 | 6.40 to 9.00
10 | CC(C)CCc1c(-c2ccc(Cl)cc2)ncc2c1c(=O)n(CCCO)c(=O)n2C | 5.01 to 6.71
11 | Cn1c(=O)n(CCCO)c(=O)c2c1cc(-c1cccc(Cl)c1)n2Cc1ccc(Cl)cc1 | 5.12 to 6.39
12 | Cc1c(-c2cccc(F)c2)sc2c1c(=O)n(CCCO)c(=O)n2C | 5.77 to 7.68
13 | COc1ccc2c(c1Cc1ccc(F)cc1)c(=O)n(CCCO)c(=O)n2C | 6.40 to 9.00
14 | Cc1c(-c2cccc(OC(F)(F)F)c2)n(C)c2c(=O)n(CCCO)c(=O)n(C)c12 | 5.12 to 6.39
15 | Cc1c(-c2cccc(OC(F)(F)F)c2)sc2c1c(=O)n(CCCO)c(=O)n2C | 5.77 to 7.68
16 | CCCCOc1ccc2c(c1Cc1ccc(F)cc1)c(=O)n(CCCO)c(=O)n2C | 6.40 to 9.00
17 | Cn1c(=O)n(CCCO)c(=O)c2c(Cc3ccccc3)c(-c3cccc(OC(F)(F)F)c3)ccc21 | 6.40 to 9.00
18 | Cn1c(=O)n(CCCO)c(=O)c2c(C(O)c3ccc(Cl)cc3)c(-c3cccc(Cl)c3)sc21 (stereo not drawn) | 5.77 to 7.68

Row | SMILES | pIC50
19 | Cn1c(=O)n(CCCO)c(=O)c2c(Cc3ccc(Cl)cc3)c(-c3cccc(Cl)c3)oc21 | 5.77 to 7.68
20 | Cn1c(=O)n(CCCO)c(=O)c2c(Cc3ccccc3)c(-c3cccc(OC(F)(F)F)c3)ncc21 | 5.01 to 6.71
21 | CC(C)c1ccccc1-c1ncc2c(c1Cc1ccc(Cl)cc1)c(=O)n(CCCO)c(=O)n2C | 5.01 to 6.71
22 | Cn1c(=O)n(CCCO)c(=O)c2c(Cc3ccc(Cl)cc3)c(Oc3cccc(Cl)c3)ncc21 | 5.01 to 6.71
23 | Cc1c(-c2cccc(OC(F)(F)F)c2)[nH]c2c(=O)n(CCCO)c(=O)n(C)c12 | 5.12 to 6.39
24 | Cn1c(=O)n(CCCOC(=O)O)c(=O)c2c(Cc3ccc(Cl)cc3)c(-c3ccc(Cl)cc3)ncc21 | 5.01 to 6.71
25 | CC(C)CCc1c(-c2cccc(OC(F)(F)F)c2)sc2c1c(=O)n(CCCO)c(=O)n2C | 5.77 to 7.68
26 | Cc1c(-c2ccc(F)c(F)c2)sc2c1c(=O)n(CCCO)c(=O)n2C | 5.77 to 7.68
27 | Cn1c(=O)n(CCCO)c(=O)c2c(Cc3ccc(Cl)cc3)c(-c3ccc(Cl)cc3)sc21 | 5.77 to 7.68
28 | CC(C)CC(O)c1c(-c2cccc(OC(F)(F)F)c2)sc2c1c(=O)n(CCCO)c(=O)n2C (stereo not drawn) | 5.77 to 7.68
29 | Cn1c(=O)n(CCCO)c(=O)c2c1c(-c1cccc(Cl)c1)cn2Cc1ccc(Cl)cc1 | 5.12 to 6.39
30 | Cn1c(=O)n(CCCO)c(=O)c2c(Cc3ccccc3)c(Oc3cccc(Cl)c3)ccc21 | 6.40 to 9.00
31 | Cc1cn(Cc2ccc(Cl)cc2)c2c(=O)n(CCCO)c(=O)n(C)c12 | 5.12 to 6.39
32 | Cn1c(=O)n(CCCO)c(=O)c2c(Cc3ccc(Cl)cc3)c(Oc3cccc(Cl)c3)sc21 | 5.77 to 7.68
33 | Cn1c(=O)n(CCCO)c(=O)c2c(Cc3ccc(Cl)cc3)c(Oc3cccc(OC(F)(F)F)c3)sc21 | 5.77 to 7.68

The next lines start with the values.

Row | pIC50 | SMILES
34 | 5.77 to 7.68 | Cc1c(-c2cccc(Cl)c2Cl)sc2c1c(=O)n(CCCO)c(=O)n2C
35 | 5.77 to 7.68 | O=c1c2c(Cc3ccc(Cl)cc3)c(-c3cccc(Cl)c3)oc2n(CCCO)c(=O)n1CCCO
36 | 5.77 to 7.68 | Cc1c(-c2ccc3ccccc3c2)sc2c1c(=O)n(CCCO)c(=O)n2C
37 | 5.01 to 6.71 | CC(C)CCc1c(-c2ccccc2C(C)C)ncc2c1c(=O)n(CCCO)c(=O)n2C
38 | 5.01 to 6.71 | CC(C)CCc1c(-c2cccc(Cl)c2)ncc2c1c(=O)n(CCCO)c(=O)n2C
39 | 6.40 to 9.00 | CCCOc1ccc2c(c1Cc1ccc(F)cc1)c(=O)n(CCCO)c(=O)n2C
40 | 5.77 to 7.68 | Cc1c(-c2ccc(F)c(C(F)(F)F)c2)sc2c1c(=O)n(CCCO)c(=O)n2C
41 | 5.77 to 7.68 | Cn1c(=O)n(CCCO)c(=O)c2c(C(O)c3ccc(Cl)cc3)c(Oc3cccc(OC(F)(F)F)c3)sc21 (stereo not drawn)
42 | 5.77 to 7.68 | Cn1c(=O)n(CCCO)c(=O)c2c(Cc3ccc(Cl)cc3)c(-c3cccc(OC(F)(F)F)c3)sc21
43 | 5.12 to 6.39 | Cn1c(-c2cccc(OC(F)(F)F)c2)cc2c1c(=O)n(CCCO)c(=O)n2C
44 | 5.01 to 6.71 | CC(C)c1ccccc1-c1cc2c(=O)n(CCCO)c(=O)n(C)c2cn1
45 | 5.77 to 7.68 | Cc1c(-c2ccc(Cl)c(Cl)c2)sc2c1c(=O)n(CCCO)c(=O)n2C
46 | 5.77 to 7.68 | Cc1c(-c2cccc(Cl)c2)sc2c1c(=O)n(CCCO)c(=O)n2C
47 | 5.77 to 7.68 | Cc1c(-c2cncc(Cl)c2)sc2c1c(=O)n(CCCO)c(=O)n2C
48 | 5.12 to 6.39 | Cc1c(-c2cccc(OC(F)(F)F)c2)n(Cc2ccc(Cl)cc2)c2c(=O)n(CCCO)c(=O)n(C)c12
49 | 5.77 to 7.68 | Cc1c(-c2ccc(Cl)cc2)sc2c1c(=O)n(CCCO)c(=O)n2C
50 | 6.40 to 9.00 | CC(C)Oc1ccc2c(c1Cc1ccc(F)cc1)c(=O)n(CCCO)c(=O)n2C

Target: T2, Short transient receptor potential channel 5
Assay: Inhibition of human TRPC5 expressed in HEK293 cells assessed as reduction in gadolinium-induced calcium entry after 30 mins by fluo-4 dye based fluorescence assay
Format: cell-based

Row | pIC50 | SMILES
51 | < 5.00 | O=c1cc(-c2ccc(O)cc2)oc2cc(O)cc(O)c12 [APIGENIN]
52 | < 5.00 | O=c1c(O)c(-c2cc(O)c(O)c(O)c2)oc2cc(O)cc(O)c12 [MYRICETIN]

Row | SMILES | pIC50
53 | O=c1cc(-c2ccc(O)c(O)c2)oc2cc(O)cc(O)c12 [LUTEOLIN] | < 5.00
